Assay results published in EP0315467A2, “Pentamidine salts useful in the treatment and prophylaxis of pneumocystis carinii pneumonia” (LyphoMed, Inc., priority 1987, dated 1989).
Structures can show the parent of a compound that is named as a salt.

Experiments:
[1] = Solubility in water of pentamidine salts; assay type: physicochemical; settings: for Solubility in H₂O: Table I
[2] = background statement on the prior art; cited from earlier work

SMILES | Solubility in H₂O [1] [mg/mL] | also measured
N=C(N)c1ccc(OCCCCCOc2ccc(C(=N)N)cc2)cc1 [Pentamidine Phosphate] | 16.8 | –
N=C(N)c1ccc(OCCCCCOc2ccc(C(=N)N)cc2)cc1 [Pentamidine Hydrochloride, reference compound] | – | Solubility in H₂O ([1]; Hydrochloride): 14.5 mg/mL; solubility in water (in words) [2]: substantially water insoluble
N=C(N)c1ccc(OCCCCCOc2ccc(C(=N)N)cc2)cc1 [Pentamidine Sulfate] | 1.4 | –
N=C(N)c1ccc(OCCCCCOc2ccc(C(=N)N)cc2)cc1 [Pentamidine Acetate] | 17.0 | –
N=C(N)c1ccc(OCCCCCOc2ccc(C(=N)N)cc2)cc1 [Pentamidine Borate] | 6.9 | –
N=C(N)c1ccc(OCCCCCOc2ccc(C(=N)N)cc2)cc1 [Pentamidine Nitrate] | 1.8 | –
N=C(N)c1ccc(OCCCCCOc2ccc(C(=N)N)cc2)cc1 [Pentamidine Lactate] | 100.3 | water solubility ([1]; bound stated in the text): greater than 100 mg/mL
N=C(N)c1ccc(OCCCCCOc2ccc(C(=N)N)cc2)cc1 [Pentamidine Citrate] | 0.6 | –
N=C(N)c1ccc(OCCCCCOc2ccc(C(=N)N)cc2)cc1 [Pentamidine Gluconate] | 114.8 | solubility ([1]; bound stated in the text): > 100 mg/mL
N=C(N)c1ccc(OCCCCCOc2ccc(C(=N)N)cc2)cc1 [Pentamidine Tartarate] | 3.4 | –
